According to PMC10302047, “Structure–Activity Relationship Studies of Indolglyoxyl-Polyamine Conjugates as Antimicrobials and Antibiotic Potentiators” (Pharmaceuticals, 2023):
pIC50: −log10 of the molar value. In brackets after ≈: the same amount, converted by molar mass.

What was measured:
[1] = system: S. aureus ATCC 25923; test: Antimicrobial susceptibility (MIC), S. aureus; format: cell-based, Staphylococcus aureus; settings: Staphylococcus aureus, ATCC25923; S. aureus ATCC 25923; mean (n = 3)
Description: (§1) The susceptibility of bacterial strains S. aureus (ATCC 25923), E. coli (ATCC 25922) and P. aeruginosa (ATCC 27853) to antibiotics and compounds was determined according to previously reported protocols. Additional antimicrobial evaluation against MRSA (ATCC 43300) and C. albicans (ATCC 90028) was undertaken at the Community for Open Antimicrobial Drug Discovery at The University of Queensland (Australia) according to their standard protocols as reported previously.

[2] = system: MRSA ATCC 43300; test: Antimicrobial susceptibility (MIC), MRSA; format: cell-based; settings: Staphylococcus aureus; MRSA ATCC 43300; mean (n = 2); read-out: MIC MRSA
Description: as §1

[3] = system: P. aeruginosa ATCC 27853; test: Antimicrobial susceptibility (MIC), P. aeruginosa; format: cell-based; settings: Pseudomonas aeruginosa, ATCC27853, mean (n = 3), read-out: MIC P. a
Description: as §1

[4] = system: E. coli ATCC 25922; test: Antimicrobial susceptibility (MIC), E. coli; format: cell-based; settings: Escherichia coli, ATCC25922, mean (n = 3)
Description: as §1

[5] = system: C. albicans ATCC 90028; test: Antifungal susceptibility (MIC), C. albicans; format: cell-based; settings: Candida albicans, ATCC90028, mean (n = 2)
Description: as §1

[6] = Cytotoxicity assay HEK293; format: cell-based, human; settings: human, HEK293 cells, mean (n = 2), read-out: Cyto. IC50 (concentration of compound at 50% cytotoxicity)
Description: Cytotoxicity assays were conducted according to previously reported protocols.

[7] = system: human red blood cells; test: Hemolytic assay; format: cell-based; settings: mean (n = 2)
Description: Hemolysis assays were conducted according to previously reported protocols.

[8] = system: P. aeruginosa ATCC 27853; test: Antibiotic potentiation (MIC of antibiotics in the presence of synergizing compounds), P. aeruginosa; format: cell-based, Pseudomonas aeruginosa; settings: concentration required to restore doxycycline activity at 2 µg/mL (4.5 µM) against P. aeruginosa ATCC 27853

| SMILES | MIC [1] | MIC [2] | MIC [3] | MIC [4] | MIC [5] | pIC50 [6] | Hem. HC10 (concentration of compound at 10% hemolytic activity) [7] | Conc (µM) for Potentiation of doxycycline [8] |
| --- | --- | --- | --- | --- | --- | --- | --- | --- |
| COc1cccc2c(C(=O)C(=O)NCCCNCCCCCCCNCCCNC(=O)C(=O)c3c[nH]c4c(OC)cccc34)c[nH]c12.O=C(O)C(F)(F)F.O=C(O)C(F)(F)F [Compound 22b, N^1,N^7-Bis(3-(2-(7-methoxy-1H-indol-3-yl)-2-oxoacetamido)propyl)heptane-1,7-diaminium 2,2,2-trifluoroacetate] | 25 µM | > 37 µM | 800 µM | 200 µM | > 37 µM | 5.05 | >37 µM | 100 µM |
| O=C(NCCCNCCCCCCCCNCCCNC(=O)C(=O)c1c[nH]c2ccccc12)C(=O)c1c[nH]c2ccccc12 [Compound 17c] | 25 µM (≈ 15 µg/mL) | 39 µM (≈ 23.4 µg/mL) | 100 µM (≈ 60.1 µg/mL) | 12.5 µM (≈ 7.51 µg/mL) | > 39 µM | 5.00 | >39 µM | 50 µM |
| O=C(NCCCNCCCCCCCCCCCCNCCCNC(=O)C(=O)c1c[nH]c2ccc(Br)cc12)C(=O)c1c[nH]c2ccc(Br)cc12.O=C(O)C(F)(F)F.O=C(O)C(F)(F)F [Compound 18e, N^1,N^12-Bis(3-(2-(5-bromo-1H-indol-3-yl)-2-oxoacetamido)propyl)dodecane-1,12-diaminium 2,2,2-trifluoroacetate] | 5.99 µM | 3.84 µM | 96 µM | 24 µM | 31 µM | 5.07 | 20 µM | 24 µM |
| COc1ccc2[nH]cc(C(=O)C(=O)NCCCNCCCCCCCCCCCCNCCCNC(=O)C(=O)c3c[nH]c4ccc(OC)cc34)c2c1 [Compound 19e] | 12.5 µM (≈ 8.96 µg/mL) | 34 µM (≈ 24.4 µg/mL) | > 200 µM | 100 µM (≈ 71.7 µg/mL) | 34 µM (≈ 24.4 µg/mL) | 5.07 | >34 µM | >200 µM |
| O=C(NCCCNCCCCCCCCNCCCNC(=O)C(=O)c1c[nH]c2ccc(Br)cc12)C(=O)c1c[nH]c2ccc(Br)cc12.O=C(O)C(F)(F)F.O=C(O)C(F)(F)F [Compound 18c, N^1,N^8-Bis(3-(2-(5-bromo-1H-indol-3-yl)-2-oxoacetamido)propyl)octane-1,8-diaminium 2,2,2-trifluoroacetate] | 25 µM | 8.1 µM | > 200 µM | > 200 µM | 32 µM | 4.74 | >32 µM | >200 µM |
| O=C(NCCCNCCCCCCCCNCCCNC(=O)C(=O)c1c[nH]c2c(F)cccc12)C(=O)c1c[nH]c2c(F)cccc12.O=C(O)C(F)(F)F.O=C(O)C(F)(F)F [Compound 21c, N^1,N^8-Bis(3-(2-(7-fluoro-1H-indol-3-yl)-2-oxoacetamido)propyl)octane-1,8-diaminium 2,2,2-trifluoroacetate] | 29 µM | 18.5 µM | > 200 µM | > 200 µM | > 37 µM | 5.04 | >37 µM | 58 µM |
| O=C(NCCCNCCCCCCCCCCNCCCNC(=O)C(=O)c1c[nH]c2c(F)cccc12)C(=O)c1c[nH]c2c(F)cccc12.O=C(O)C(F)(F)F.O=C(O)C(F)(F)F [Compound 21d, N^1,N^10-Bis(3-(2-(7-fluoro-1H-indol-3-yl)-2-oxoacetamido)propyl)decane-1,10-diaminium 2,2,2-trifluoroacetate] | 3.12 µM | 4.48 µM | > 200 µM | 6.25 µM | 36 µM | 5.33 | >36 µM | 100 µM |
| O=C(NCCCNCCCCCCCNCCCNC(=O)C(=O)c1c[nH]c2ccc(Br)cc12)C(=O)c1c[nH]c2ccc(Br)cc12.O=C(O)C(F)(F)F.O=C(O)C(F)(F)F [Compound 18b, N^1,N^7-Bis(3-(2-(5-bromo-1H-indol-3-yl)-2-oxoacetamido)propyl)heptane-1,7-diaminium 2,2,2-trifluoroacetate] | 6.4 µM | 4.1 µM | 51 µM | 51 µM | 16 µM | 4.89 | >33 µM | 12.9 µM |
| COc1ccc2[nH]cc(C(=O)C(=O)NCCCNCCCCCCCCCCNCCCNC(=O)C(=O)c3c[nH]c4ccc(OC)cc34)c2c1.O=C(O)C(F)(F)F.O=C(O)C(F)(F)F [Compound 19d, N^1,N^10-Bis(3-(2-(5-methoxy-1H-indol-3-yl)-2-oxoacetamido)propyl)decane-1,10-diaminium 2,2,2-trifluoroacetate] | 12.5 µM | 17.4 µM | > 200 µM | 50 µM | 35 µM | 5.17 | >35 µM | >200 µM |
| O=C(NCCCNCCCCCCCCCCCCNCCCNC(=O)C(=O)c1c[nH]c2c(F)cccc12)C(=O)c1c[nH]c2c(F)cccc12.O=C(O)C(F)(F)F.O=C(O)C(F)(F)F [Compound 21e, N^1,N^12-Bis(3-(2-(7-fluoro-1H-indol-3-yl)-2-oxoacetamido)propyl)dodecane-1,12-diaminium 2,2,2-trifluoroacetate] | 27.2 µM | 4.34 µM | > 220 µM | > 220 µM | 35 µM | 5.19 | >35 µM | >200 µM |
| O=C(NCCCNCCCCCCCCCCNCCCNC(=O)C(=O)c1c[nH]c2ccccc12)C(=O)c1c[nH]c2ccccc12.O=C(O)C(F)(F)F.O=C(O)C(F)(F)F [Compound 17d, N^1,N^10-Bis(3-(2-(1H-indol-3-yl)-2-oxoacetamido)propyl)decane-1,10-diaminium 2,2,2-trifluoroacetate] | 14.6 µM | 18.7 µM | 117 µM | 117 µM | 37 µM | 5.31 | >37 µM | 58 µM |
| Cc1cccc2c(C(=O)C(=O)NCCCNCCCCCCCCCCCCNCCCNC(=O)C(=O)c3c[nH]c4c(C)cccc34)c[nH]c12.O=C(O)C(F)(F)F.O=C(O)C(F)(F)F [Compound 23e, N^1,N^12-Bis(3-(2-(7-methyl-1H-indol-3-yl)-2-oxoacetamido)propyl)dodecane-1,12-diaminium 2,2,2-trifluoroacetate] | 6.85 µM | ≤ 0.27 µM | > 220 µM | 13.7 µM | ≤ 0.27 µM | < 4.46 | 8.4 µM | 220 µM |
| O=C(NCCCNCCCCCCCCCCCCNCCCNC(=O)C(=O)c1c[nH]c2ccccc12)C(=O)c1c[nH]c2ccccc12 [Compound 17e] | 25 µM (≈ 16.4 µg/mL) | 9.04 µM (≈ 5.94 µg/mL) | > 200 µM | > 200 µM | 36 µM (≈ 23.6 µg/mL) | 5.25 | >36 µM | 6.25 µM |
| O=C(NCCCNCCCCCCNCCCNC(=O)C(=O)c1c[nH]c2ccc(Br)cc12)C(=O)c1c[nH]c2ccc(Br)cc12.O=C(O)C(F)(F)F.O=C(O)C(F)(F)F [Compound 18a, N^1,N^6-Bis(3-(2-(5-bromo-1H-indol-3-yl)-2-oxoacetamido)propyl)hexane-1,6-diaminium 2,2,2-trifluoroacetate] | 1.56 µM | 4.17 µM | 50 µM | 6.25 µM | 16.7 µM | 5.05 | >33 µM | 6.5 µM |
| O=C(NCCCNCCCCCCCCCCNCCCNC(=O)C(=O)c1c[nH]c2ccc(Br)cc12)C(=O)c1c[nH]c2ccc(Br)cc12.O=C(O)C(F)(F)F.O=C(O)C(F)(F)F [Compound 18d, N^1,N^10-Bis(3-(2-(5-bromo-1H-indol-3-yl)-2-oxoacetamido)propyl)decane-1,10-diaminium 2,2,2-trifluoroacetate] | 6.16 µM | 7.88 µM | 200 µM | 98 µM | 32 µM | 4.80 | >32 µM | 25 µM |
| COc1cccc2c(C(=O)C(=O)NCCCNCCCCCCCCCCNCCCNC(=O)C(=O)c3c[nH]c4c(OC)cccc34)c[nH]c12.O=C(O)C(F)(F)F.O=C(O)C(F)(F)F [Compound 22d, N^1,N^10-Bis(3-(2-(7-methoxy-1H-indol-3-yl)-2-oxoacetamido)propyl)decane-1,10-diaminium 2,2,2-trifluoroacetate] | 25 µM | ≤ 0.27 µM | 800 µM | 50 µM | 17 µM | < 4.46 | 8.4 µM | 400 µM |
